According to patent publication US9750817B2, “Amphotericin B derivatives” (priority 2015, dated 2017):
Values after ≈ are worked out from the molar mass of the structure shown.

Key:
[1] = Solubility in double-distilled water; type: physicochemical; details: double-distilled water
Experimental: Physical characteristics of AMB derivatives and of AMB were tested, including solubility.

[2] = test system: Aspergillus flavus; test: MIC/MFC broth dilution (CLSI), clinical isolates; type: cell-based; details: A. Flavus, 3 isolates, 48 h at 37° C.
Experimental: (§1) Isolates of Aspergillus fumigatus, Aspergillus flavus, Aspergillus terreus Aspergillus niger, Rhizopus oryzae, Candida albicans and Candida krusei were isolated from patients in Israeli hospitals and used for in vitro efficacy studies.
(§2) Efficacy was evaluated by measuring minimum inhibitory concentration (MIC) and minimum fungicidal concentration (MFC) values for fungal isolates. Testing of isolates was performed according to the Clinical & Laboratory Standards Institute (CLSI) method. (CLSI. 2008. M27-A3 Reference method for broth dilution antifungal susceptibility testing of yeasts; Approved Standard—3rd edition. Clinical and Laboratory Standards Institute, Wayne). RPMI MOPS media was used throughout the experiment as growth and dilution media. Spores and yeast cells were harvested in 0.05% Tween from 24-48 h and cultures were grown in rich yeast extract-agar-glucose (YAG) medium (composed of: 0.5% w/v yeast extract, 1% w/v glucose, 10 millimolar (mM) MgCl2, supplemented with 0.1% v/v trace elements solution, and 0.2% v/v vitamin mix). The spores and the yeast cells were counted and diluted to a final concentration of 2.5×10^4 per ml. A stock solution of 5 mg/ml was prepared in dimethylsulfoxide for free AMB. Compounds 4 and 6 were prepared in sterile saline. Double dilutions of each drug were performed in 100 μL volume of RPMI-MOPS in 96 well plates beginning with a final concentration of 32 micrograms (μg)/well of each drug to 0.06 μg/well. 2500 spores or yeast cells were added to each well. Results were recorded 48 h post incubation at 37° C. […] The MFC was defined as the lowest drug concentration that yielded three or fewer colonies (i.e. 99% of the inoculum was killed).

[3] = test system: Aspergillus fumigatus; test: MIC/MFC broth dilution (CLSI), clinical isolates; type: cell-based; details: A. fumigatus, 4 isolates, 48 h at 37° C.
Experimental: as §1, §2

[4] = test system: Aspergillus niger; test: MIC/MFC broth dilution (CLSI), clinical isolates; type: cell-based; details: A. niger, 3 isolates, 48 h at 37° C.
Experimental: as §1, §2

[5] = test system: Aspergillus terreus; test: MIC/MFC broth dilution (CLSI), clinical isolates; type: cell-based; details: listed as printed C. terreus, 1 isolate, 48 h at 37° C.
Experimental: as §1, §2

[6] = test system: Candida albicans; test: MIC/MFC broth dilution (CLSI), clinical isolates; type: cell-based; details: C. albicans, 2 isolates, 48 h at 37° C.
Experimental: as §1, §2

[7] = test system: Candida krusei; test: MIC/MFC broth dilution (CLSI), clinical isolates; type: cell-based; details: C. krusei, 3 isolates, 48 h at 37° C.
Experimental: as §1, §2

[8] = test system: Rhizopus oryzae; test: MIC/MFC broth dilution (CLSI), clinical isolates; type: cell-based; details: 1 isolate, 48 h at 37° C.
Experimental: as §1, §2

[9] = test system: C. albicans (CBS562); test: MIC of compound 6, AMB and FMOC-6; type: cell-based, Candida albicans
Experimental: as §2
In addition, the amine protected equivalent of compound 6 in which the amine of compound 6 was protected with an FMOC group was tested (designated FMOC-6) to determine MIC versus AMB and versus compound 6 against A. fumigatus (Af 293) and C. albicans (CBS562).

[10] = test system: C. albicans CBS 562; test: In-vitro time-kill study; type: cell-based, Candida albicans; details: 2-fold above the MIC, over 2 hours, 30° C.
Experimental: In time-kill studies, C. albicans CBS 562 was grown overnight from a single colony in 50 ml of liquid YPD medium (composed of 1% (w/v) yeast extract, Difco, 2% w/v peptone, Difco, and 2% w/v dextrose, Merck) at 30° C. On the next day, the starter was diluted 1:100 in the same medium and grown to an optical density at 600 nanometers (OD600 nm) of 0.5-0.6. Then, cells were counted and diluted to 10^6 cells/ml in YPD. Compound 6 and amphotericin B (AMB) were added at concentrations 2-fold above the MIC determined for this strain (2 and 0.5 μg/ml, respectively) and shaken at 30° C. At different time points (0, 15 min, 30 min, 1 h, 2 h) samples were removed, diluted and plated on YPD agar (2% agar) plates. Colonies were counted after incubation for 24 h at 30° C. Control measurements included untreated C. albicans cells and cells treated with AMB. All time-kill curve studies were conducted in duplicate and in three independent experiments.

[11] = test system: human erythrocytes; test: In-vitro toxicity (hemolysis) study; type: cell-based; details: 6 μg/ml; for toxicity to erythrocytes: assay conditions of FIG. 4B
Experimental: Reference is made to FIG. 4B. Fresh human erythrocytes were diluted 1:100 in PBS, and incubated in an Eppendorf tube while rotating slowly in the presence of 6 μg/ml of each of compound 4 and compound 6. Amphotericin B was used as positive control. Sterile double distilled water served as a control for 100% hemolysis. After 1, 3, 5 and 21 h, 20 μl of each test tube were removed and diluted in 180 μl PBS. Samples were centrifuged for 10 minutes at 1200 RPM and the optical density of the supernatant was measured at 425 nm.

[12] = test system: mouse embryonic fibroblasts (MEFs); test: MTT viability assay in mouse embryonic fibroblasts; type: cell-based
Experimental: Reference is made to FIG. 4C. Mouse embryonic fibroblasts were used in this example. 1×10^4 mouse embryonic fibroblasts (MEFs) per well were seeded in 96-well plates and incubated at 37° C. After 24 h the media was replaced with 100 μl culture medium containing serial dilutions of AMB, compounds 4 or 6, or left untreated. After 24 h, the media was replaced by fresh media (100 μl per well) containing 1 mg/ml MTT (3-(4,5-Dimethylthiazol-2-yl)-2,5-Diphenyltetrazolium Bromide, ((Biological Industries, Israel)) reagent and the cells were incubated for an additional 3 h at 37° C. MTT-formazan crystals were dissolved by the addition of 100 μl per well of extraction solution (20% SDS, 50% N,N-dimethyl formamide (DMF), pH=4.7) and incubation for 16 h at 37° C. Absorbance at 570 nm was recorded on a Biotek Synergy HT plate reader.
The results were expressed as the percentage of living cells relative to the untreated control and are depicted in FIG. 4C. The inhibition concentration (IC50) value is the concentration of the compound which inhibited cell growth by 50%.

[13] = test system: ICR mice; test: In vivo toxicity, intravenous injection; details: for LD50 / Maximum Dose: tail vein
Experimental: In-vivo toxicity was determined in mice using 6 week old female ICR mice (n=6). Different concentrations of each formulation were injected intravenously through the tail vein, 0.2 ml per mouse, until death was observed. PAD-AMB conjugates were prepared in sterile saline solution and were filtered through 0.45-micrometer pore-size cellulose acetate sterile filters prior to injection.

SMILES | Solubility [1] [µg/mL] | MFC [2] [µg/mL] | MIC [2] [µg/mL] | MFC [3] [µg/mL] | MIC [3] [µg/mL] | MFC [4] [µg/mL] | MIC [4] [µg/mL] | MFC [5] [µg/mL] | MIC [5] [µg/mL] | MFC [6] [µg/mL] | MIC [6] [µg/mL] | MFC [7] [µg/mL] | MIC [7] [µg/mL] | MFC [8] [µg/mL] | MIC [8] [µg/mL] | MIC [9] [µg/mL] | time-kill activity (fungal presence) [10] | toxicity to erythrocytes [11] | LD50 ([13]; female ICR mice, intravenous) | Maximum Dose ([13]; female ICR mice, intravenous) [mg/kg] | also measured
C[C@@H]1[C@H](O)[C@@H](C)/C=C/C=C/C=C/C=C/C=C/C=C/C=C/[C@H](O[C@@H]2O[C@H](C)[C@@H](O)[C@H](N)[C@@H]2O)C[C@@H]2O[C@](O)(C[C@@H](O)C[C@@H](O)[C@H](O)CC[C@@H](O)C[C@@H](O)CC(=O)O[C@H]1C)C[C@H](O)[C@H]2C(=O)O [AMB, Amphotericin B] | <1 | 0.5 to 1 | 0.5 to 1 | 0.5 to 4 | 0.25 to 1 | 0.5 to 1 | 0.5 to 1 | 4 (≈ 4.33 µM) | 2 (≈ 2.16 µM) | 0.5 (≈ 0.541 µM) | 0.25 (≈ 0.271 µM) | 1 to 2 | 0.5 (≈ 0.541 µM) | 0.25 (≈ 0.271 µM) | 0.25 (≈ 0.271 µM) | 0.25 | reducing the fungal presence | very toxic | 1.2 mg/kg | 1.1 | hemolysis ([11]; after 3 h of agitation): 76%; IC50 (concentration which inhibited cell growth by 50%) ([12]; 24 h exposure, MTT): 6.6 µg/mL; outcome at twice the LD50 ([13]; mice injected at twice the LD50): die instantaneously; maximum tolerated dose ([13]; mouse): about 1 mg/kg body weight per day
COC(=O)C1C(O)CC2(O)CC(O)CC(O)C(O)CCC(O)CC(O)CC(=O)OC(C)C(C)C(O)C(C)C=CC=CC=CC=CC=CC=CC=CC(OC3OC(C)C(O)C(NC(=O)CCOCCOCCOCCOCCOCCOCCOCCOCCN)C3O)CC1O2 (stereo not drawn) [Compound 6, amphotericin B amide, methyl ester-PEG(8)-amine] | 700 (≈ 514 µM) | 2 to 4 | 2 to 4 | 2 to 8 | 1 to 8 | 2 (≈ 1.47 µM) | 2 (≈ 1.47 µM) | 16 (≈ 11.8 µM) | 16 (≈ 11.8 µM) | 2 (≈ 1.47 µM) | 1 (≈ 0.734 µM) | 4 (≈ 2.94 µM) | 2 (≈ 1.47 µM) | 4 (≈ 2.94 µM) | 4 (≈ 2.94 µM) | 2 | reducing the fungal presence | negligible toxicity | not reached | 42 | hemolytic activity ([11]; after 3 h of agitation): only slightly hemolytic; times less toxic than AMB ([12]; from IC50): at least 600 times; mouse LD50 fold higher than AMB ([13]; female ICR mice, intravenous): ≥ 40 fold; signs of toxicity at the highest injectable doses ([13]; female ICR mice, intravenous): did not show any signs of toxicity
